Where “and” joins values, the source holds several entries; their conditions need not be identical. Equal entries are not always repeated.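 96-well plates; 48 h exposure; 5 concentrations. Endpoints by linear interpolation between flanking doses. Not reached: highest tested concentration assigned. Here, GI50 denotes the concentration required for 50% inhibition of growth. TGI marks complete inhibition of growth.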
Experiments:
Assay in all cases: NCI anticancer screen, dose series, 48 h
[1] = tested on: HCC-2998 colon
[2] = tested on: HOP-92 NSCLC
[3] = tested on: PC-3 prostate
[4] = tested on: MDA-MB-435
[5] = tested on: RPMI-8226 leukemia
[6] = tested on: U251 CNS
[7] = tested on: MCF7 breast
[8] = tested on: SNB-75 CNS
[9] = tested on: SK-MEL-28 melanoma
[10] = tested on: UO-31 renal

Row | Compound | GI50 [1] | TGI [1] | GI50 [2] | TGI [2] | GI50 [3] | TGI [3] | GI50 [4] | TGI [4] | GI50 [5] | TGI [5] | GI50 [6] | TGI [6] | GI50 [7] | TGI [7] | GI50 [8] | TGI [8] | GI50 [9] | TGI [9] | TGI [10] | GI50 [10]
1 | Cc1cc2nc(-c3c(N)ncc(C#N)c3-c3ccc(Cl)cc3)[nH]c2cc1C | 20.9 µM | > 100 µM | 0.275 µM | 5.23 µM | 6.59 µM | 39.3 µM | 26.2 µM | > 100 µM | 5.55 µM | > 100 µM | 5.48 µM | 21.4 µM | 9.34 µM | > 100 µM | 12.9 µM | 32.4 µM | 5.8 µM | 40.2 µM | – | –
2 | O=[N+]([O-])c1ccc2c(c1)n1c(N3CCCC3)[n+]3ccccc3c1c1c3cccc[n+]3c(N3CCCC3)n21 | – | > 100 µM | – | > 100 µM | – | > 100 µM | – | > 100 µM | – | > 100 µM | – | > 100 µM | – | > 100 µM | – | > 100 µM | – | > 100 µM | – | –
3 | COc1cc(S(=O)(=O)Nc2ccc(-c3csc(/N=C\c4ccccc4)n3)cc2)ccc1Cl | – | – | – | > 100 µM | – | > 100 µM | – | > 100 µM | – | > 100 µM | – | – | – | 49.9 µM | – | > 100 µM | – | > 100 µM | > 100 µM | –
4 | O=[N+]([O-])c1cc(F)ccc1Sc1ccccc1 | – | > 10 µM | – | > 10 µM | – | > 10 µM | – | > 10 µM | – | > 10 µM | – | > 10 µM | – | > 10 µM | – | > 10 µM | – | > 10 µM | – | –
5 | COc1cc(CNC(=S)CCCCCCCCCCC(C)C)ccc1O | – | > 100 µM | – | 68 µM | – | – | – | > 100 µM | – | > 100 µM | – | > 100 µM | – | > 100 µM | – | > 100 µM | – | > 100 µM | 95.7 µM | –
6 | COC(=O)C1CC23C=CCN4CC(C2C)C2(c5ccccc5NC12)C43 (stereo not drawn) | – | > 100 µM | – | > 100 µM | – | > 100 µM | – | > 100 µM | – | > 100 µM | – | > 100 µM | – | > 100 µM | – | > 100 µM | – | > 100 µM | – | –
7 | C=C(C)[C@@H]1CC[C@]2(CO)CC[C@]3(C)[C@H](CC[C@@H]4[C@@](C)(CCCN)[C@H](C(=C)C)CC[C@]43C)[C@@H]12 | 1.79 µM | 3.3 µM | 1.38 µM | 2.82 µM | 1.55 µM | 3.09 µM | 1.72 µM | 3.16 µM | 1.46 µM | 3.99 µM | – | – | – | – | 1.48 µM | 2.82 µM | 1.75 µM | 3.14 µM | 2.58 µM | 1.31 µM
8 | Cn1c(=O)n(CC2CS2)c2ccccc21 (stereo not drawn) | – | > 100 µM | – | > 100 µM | – | – | – | – | – | > 100 µM | – | – | – | – | – | > 100 µM | – | > 100 µM | > 100 µM | –
9 | CCC1(OC(=O)CN)C(=O)OCc2c1cc1n(c2=O)Cc2cc3cc4c(cc3nc2-1)OCO4 (stereo not drawn) | 0.101 µM | 1.08 µM | – | – | – | – | – | – | 0.0253 µM and 0.0231 µM | – | < 0.01 µM | 0.0195 µM | < 0.01 µM | > 100 µM | 0.0207 µM and < 0.01 µM | – | 0.195 µM and 0.294 µM | 13.3 µM and 11.8 µM | 0.151 µM and 0.4 µM | < 0.01 µM and 0.0614 µM
10 | Cc1nc(Nc2nc3ccccc3[nH]2)nc(Cl)c1CCCl | – | – | – | 90.3 µM | – | > 100 µM | – | > 100 µM | – | > 100 µM | – | > 100 µM | – | – | – | > 100 µM | – | > 100 µM | > 100 µM | –
11 | CC(=O)O[C@H]1CCC2[C@@H]3CCC4NC(=O)C(C#N)C[C@]4(C)C3CC[C@@]21C (stereo partly drawn) | – | > 10 µM | – | > 10 µM | – | > 10 µM | – | > 10 µM | – | > 10 µM | – | > 10 µM | – | > 10 µM | – | – | – | > 10 µM | > 10 µM | –
12 | C=CCOC1(CC=C)C(=O)OC2C(O)COC21O (stereo not drawn) | – | > 100 µM | – | – | – | > 100 µM | – | > 100 µM | – | – | – | > 100 µM | – | > 100 µM | – | – | – | > 100 µM | > 100 µM | –
13 | CC(C#N)N(CCc1ccccc1)C(=O)c1ccccc1 (stereo not drawn) | – | > 100 µM | – | – | – | > 100 µM | – | > 100 µM | – | > 100 µM | – | > 100 µM | – | > 100 µM | – | > 100 µM | – | – | > 100 µM | –
14 | COC(=O)/C=c1/c2ccccc2n2c1c1ccccc1[n+]2C | – | 5.75 µM | – | – | – | 9.79 µM | – | 18.8 µM | – | 9.67 µM | – | 19.4 µM | – | 26.5 µM | – | 8.44 µM | – | 19.9 µM | 20.4 µM | –
15 | CC1(C)[C@@H](OC(N)=O)C=C[C@]2(CO)[C@H]3CC[C@]4(C)[C@@H](c5ccc(=O)oc5)[C@@H](Cl)C[C@]4(O)C3=CC[C@@H]12 | 0.0113 µM | 0.0776 µM | 0.00862 µM | 0.0513 µM | 0.00189 µM | 0.0137 µM | 0.00814 µM | 0.0215 µM | 0.00917 µM | 0.0956 µM | 0.0043 µM | 0.0158 µM | < 0.0001 µM | 0.0299 µM | – | – | 0.0116 µM | 0.0303 µM | 0.0134 µM | 0.00351 µM
16 | CC(=O)NC(=O)NC1=NCCC(=O)N1CCc1c[nH]c2ccccc12 | – | > 100 µM | – | > 100 µM | – | > 100 µM | – | > 100 µM | – | > 100 µM | – | > 100 µM | – | > 100 µM | – | – | – | > 100 µM | > 100 µM | –
17 | C=CCc1ccccc1C1CC2(C(=O)OC)OC1C(C(=O)OC)=C2C(=O)OC (stereo not drawn) | – | > 10 µM | – | – | – | > 10 µM | – | > 10 µM | – | > 10 µM | – | > 10 µM | – | > 10 µM | – | – | – | > 10 µM | > 10 µM | –
18 | COc1cc2c(cc1OC)C(=O)/C(=C/c1ccc(O)cc1)CC2 | – | > 10 µM | – | > 10 µM | – | > 10 µM | – | > 10 µM | – | > 10 µM | – | > 10 µM | – | > 10 µM | – | – | – | > 10 µM | 4.32 µM | –
19 | CCN1CCCn2c(=O)[nH]c3cc(Br)cc1c32 | – | > 100 µM | – | – | – | > 100 µM | – | > 100 µM | – | > 100 µM | – | > 100 µM | – | > 100 µM | – | 43.2 µM | – | > 100 µM | > 100 µM | –
20 | COc1ccc2c(c1)C(=O)C1CCC(=O)N1C2c1ccc2c(c1)OCO2 (stereo not drawn) | – | 28 µM | – | – | – | 29.5 µM | – | 24.4 µM | – | 12.9 µM | – | 31.5 µM | – | – | – | 36.5 µM | – | 24.4 µM | 22.4 µM | –

From PubChem BioAssay (NCI)
